SMILES strings stand for the structures.

The first assay deals with T1, human P2X7 receptor (Homo sapiens, UniProt Q99572, R270H).
T1 construct: expressed in transfected cells
T1 sequence (Q99572 1-595 R270H): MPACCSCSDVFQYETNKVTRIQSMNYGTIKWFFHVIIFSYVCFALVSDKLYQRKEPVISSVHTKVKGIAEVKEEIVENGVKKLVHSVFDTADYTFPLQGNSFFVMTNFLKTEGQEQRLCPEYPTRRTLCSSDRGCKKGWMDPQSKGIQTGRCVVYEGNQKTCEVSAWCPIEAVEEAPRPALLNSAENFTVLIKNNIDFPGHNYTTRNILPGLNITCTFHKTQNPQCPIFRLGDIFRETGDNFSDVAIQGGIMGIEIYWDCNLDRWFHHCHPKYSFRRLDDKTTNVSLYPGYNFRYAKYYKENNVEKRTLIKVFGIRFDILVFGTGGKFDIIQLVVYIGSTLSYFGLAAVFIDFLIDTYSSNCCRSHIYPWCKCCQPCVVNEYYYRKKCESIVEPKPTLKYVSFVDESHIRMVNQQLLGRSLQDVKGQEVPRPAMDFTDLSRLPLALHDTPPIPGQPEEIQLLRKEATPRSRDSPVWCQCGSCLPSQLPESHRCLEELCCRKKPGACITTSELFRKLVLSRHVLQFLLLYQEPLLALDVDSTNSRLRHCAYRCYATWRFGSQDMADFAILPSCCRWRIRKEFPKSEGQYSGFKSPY
Briefly: Evaluation of a human P2X7 receptor inhibitory activity (Yo-Pro uptake, BzATP stimulation, FLIPR TETRA). The assay is classed as cell-based. The note with it: antagonistic activity for the human P2X7 receptor, 1321N1 cell transfected with the human P2X7 receptor gene, Yo-Pro fluorescence. The method, then: Test Example 1 Evaluation of a Human P2X7 Receptor Inhibitory Activity
Stably expressing cell line (1321N1 cell transfected with the human P2X7 receptor gene (GenBank accession number NM_002562.5 including T606C and G952A SNP)) was used. The cells were seeded in a 384-well microtiter plate at a concentration of 8000 cells/well and cultured in the medium (10% fetal bovine serum, 25 mM HEPES, 1% penicillin and streptomycin in DMEM) for one day at 37° C. under 5% carbon dioxide atmosphere. After replacing with 20 μL of the HBSS buffer (20 mM HEPES. 55.6 mM D-glucose, 1×HBSS(−), pH 7.4-7.5), 15 μL of 17.3 μM Yo-Pro solution in the HBSS buffer was added. The plate was placed in high-throughput cellular screening system FLIPR TETRA (Molecullar Devices, LLC.) and 15 μL of 130 μM BzATP solution in the HBSS buffer was added. Measurement of fluorescence intensity by FLIPR TETRA was started. After eight minutes, 15 μL of DMSO solutions containing different concentrations of the compound of the present invention as prepared by dilution with the HBSS buffer were dispensed to each well through the built-in automatic dispenser, and the measurement of fluorescence intensity was continued for 20 minutes. The maximum fluorescence intensity without the compound of the present invention is calculated as 0% inhibition and the maximum fluorescence intensity when the reference compound was added is calculated as 100% inhibition. Changing values of fluorescence intensity by the compound of the present invention were calculated by difference between maximum and minimum fluorescence intensity for 20 minutes. Inhibition ratios (%) were calculated from the following equation:
[formula] IC50 was calculated using logistic approximation.
What is called IC50 is the concentration that gives 50% inhibition. Higher therefore signals lower potency. `O=c1cc(-c2cccc(C(F)(F)F)c2Cl)n(Cc2ccccc2F)cc1Br` [Compound I-001] yielded an IC50 of 67 nM.
Turning to `COc1cn(Cc2ccccc2)c(-c2cccc(C(F)(F)F)c2Cl)cc1=O` [Compound I-015], the half-inhibitory concentration (IC50) was 44 nM.
Still for that read-out and setting: in the case of `O=c1ccn(Cc2ccc(F)cc2)c(-c2cccc(Cl)c2Cl)c1` [Compound I-020] it was 810 nM.
In the case of `O=c1ccn(Cc2cccc3ccsc23)c(-c2cccc(C(F)(F)F)c2Cl)c1` [Compound I-048], the IC50 is 110 nM.

The same assay, now with this note: antagonistic activity for the human P2X7 receptor, 1321N1 cell transfected with the human P2X7 receptor gene, Yo-Pro fluorescence, class symbols.
Consider `N#Cc1cn(Cc2ccccc2F)c(-c2cccc(C(F)(F)F)c2Cl)cc1=O` [Compound I-002], for which the IC50 is under 50 nM.
On to `N#Cc1cccc(Cn2cc(Br)c(=O)cc2-c2cccc(C(F)(F)F)c2Cl)c1` [Compound I-003], for which the concentration for half-maximal inhibition (IC50) fell in the range of 100 to 500 nM.
As to `N#Cc1cccc(Cn2cc(N3CCCC3)c(=O)cc2-c2cccc(C(F)(F)F)c2Cl)c1` [Compound I-004], the IC50 was 500 to 1000 nM.
As to `CC(=O)c1cn(Cc2cccc(C#N)c2)c(-c2cccc(C(F)(F)F)c2Cl)cc1=O` [Compound I-005], the half-maximal inhibitory concentration (IC50) is 500 to 1000 nM.
Same read-out and setting: the result for `N#Cc1cccc(Cn2cc(N)c(=O)cc2-c2cccc(C(F)(F)F)c2Cl)c1` [Compound I-006] reads 500 to 1000 nM; that for `COc1cn(Cc2cccc(C#N)c2)c(-c2cccc(C(F)(F)F)c2Cl)cc1=O` [Compound I-007], 100 to 500 nM; that for `O=c1cc(-c2cccc(C(F)(F)F)c2Cl)n(Cc2ccccc2)cc1Br` [Compound I-008], 100 to 500 nM.
Same read-out and setting: the result for `COc1cccc(Cn2cc(Br)c(=O)cc2-c2cccc(C(F)(F)F)c2Cl)c1` [Compound I-009] reads 100 to 500 nM; that for `O=c1cc(-c2cccc(C(F)(F)F)c2Cl)n(Cc2cccc(F)c2)cc1Br` [Compound I-010], 100 to 500 nM; that for `O=c1cc(-c2cccc(C(F)(F)F)c2Cl)n(Cc2cccc(Cl)c2)cc1Br` [Compound I-011], 100 to 500 nM.
As for `CC(C)NC(=O)Nc1cccc(Cn2cc(Br)c(=O)cc2-c2cccc(C(F)(F)F)c2Cl)c1` [Compound I-012], the IC50 was 500 to 1000 nM.
Same read-out and setting: in the case of `N#Cc1cccc(Cn2cc(Cl)c(=O)cc2-c2cccc(C(F)(F)F)c2Cl)c1` [Compound I-013] it was 100 to 500 nM; in that of `CC(=O)c1cn(Cc2ccccc2)c(-c2cccc(C(F)(F)F)c2Cl)cc1=O` [Compound I-014], 100 to 500 nM; in that of `Cc1ccccc1Cn1ccc(=O)cc1-c1cccc(Cl)c1Cl` [Compound I-016], 100 to 500 nM.
Compound `O=c1ccn(Cc2ccc(F)cc2)c(-c2cccc(C(F)(F)F)c2Cl)c1` [Compound I-017] registered an IC50 of 500 to 1000 nM.
`Cc1ccccc1Cn1ccc(=O)cc1-c1cccc(C(F)(F)F)c1Cl` [Compound I-018] yielded an IC50 of 50 to 100 nM.
As to `O=c1ccn(Cc2ccccc2)c(-c2cccc(C(F)(F)F)c2Cl)c1` [Compound I-019], the half-inhibitory concentration (IC50) was 100 to 500 nM.
Still for that read-out and setting: in the case of `O=c1ccn(Cc2ccccc2)c(-c2cccc(Cl)c2Cl)c1` [Compound I-021] it was 500 to 1000 nM; in that of `O=c1ccn(Cc2ccccc2F)c(-c2cccc(C(F)(F)F)c2Cl)c1` [Compound I-022], 100 to 500 nM; in that of `N#Cc1ccccc1Cn1ccc(=O)cc1-c1cccc(C(F)(F)F)c1Cl` [Compound I-023], 500 to 1000 nM.
As to `N#Cc1cccc(Cn2ccc(=O)cc2-c2cccc(C(F)(F)F)c2Cl)c1` [Compound I-024], the half-maximal inhibitory concentration (IC50) was in the range of 500 to 1000 nM.
Same read-out and setting: in the case of `N#Cc1ccc(Cn2ccc(=O)cc2-c2cccc(C(F)(F)F)c2Cl)cc1` [Compound I-025] it was 1000 to 10000 nM; in that of `O=c1ccn(Cc2ccccc2S(=O)(=O)N2CCOCC2)c(-c2cccc(C(F)(F)F)c2Cl)c1` [Compound I-026], 1000 to 10000 nM; in that of `O=c1ccn(Cc2cccc(F)c2)c(-c2cccc(C(F)(F)F)c2Cl)c1` [Compound I-027], 500 to 1000 nM.
For the compound `Cc1cccc(Cn2ccc(=O)cc2-c2cccc(C(F)(F)F)c2Cl)c1` [Compound I-028], the IC50 fell in the range of 100 to 500 nM.
The compound `Cc1ccc(Cn2ccc(=O)cc2-c2cccc(C(F)(F)F)c2Cl)cc1` [Compound I-029] registered a half-maximal inhibitory concentration (IC50) of 1000 to 10000 nM.
Compound `O=c1ccn(Cc2ccccc2OC(F)(F)F)c(-c2cccc(C(F)(F)F)c2Cl)c1` [Compound I-030] returned an IC50 of 500 to 1000 nM.
Compound `O=c1ccn(Cc2cccc(OC(F)(F)F)c2)c(-c2cccc(C(F)(F)F)c2Cl)c1` [Compound I-031] returned an IC50 of 1000 to 10000 nM.
Turning to `COc1cccc(Cn2ccc(=O)cc2-c2cccc(C(F)(F)F)c2Cl)n1` [Compound I-032], the IC50 was in the range of 500 to 1000 nM.
Compound `O=c1ccn(Cc2ccccc2C(F)(F)F)c(-c2cccc(C(F)(F)F)c2Cl)c1` [Compound I-033] displayed an IC50 of 100 to 500 nM.
`O=c1ccn(Cc2cccc(=O)[nH]2)c(-c2cccc(C(F)(F)F)c2Cl)c1` [Compound I-034]: the 50% inhibitory concentration (IC50) is 500 to 1000 nM.
`O=c1ccn(Cc2cccc(CO)c2)c(-c2cccc(C(F)(F)F)c2Cl)c1` [Compound I-035] displayed an IC50 of 100 to 500 nM.
The compound `O=c1ccn(Cc2cccc(Oc3ccccc3)c2)c(-c2cccc(C(F)(F)F)c2Cl)c1` [Compound I-036] had an IC50 of 500 to 1000 nM.
With `CC(C)NC(=O)Nc1cccc(Cn2ccc(=O)cc2-c2cccc(C(F)(F)F)c2Cl)c1` [Compound I-037], the concentration for half-maximal inhibition (IC50) fell in the range of 100 to 500 nM.
In turn, `COc1ccc(-c2noc(Cn3ccc(=O)cc3-c3cccc(C(F)(F)F)c3Cl)n2)cc1` [Compound I-038] had a half-maximal inhibitory concentration (IC50) of 1000 to 10000 nM.
The compound `O=c1ccn(Cc2ccccc2-c2ccccc2)c(-c2cccc(C(F)(F)F)c2Cl)c1` [Compound I-039] came in with an IC50 of 1000 to 10000 nM.
`COc1ccc(Cn2ccc(=O)cc2-c2cccc(C(F)(F)F)c2Cl)cc1` [Compound I-040] had an IC50 of 1000 to 10000 nM.
Regarding `O=c1ccn(Cc2ccc(Cl)cc2)c(-c2cccc(C(F)(F)F)c2Cl)c1` [Compound I-041], the IC50 lay within 1000 to 10000 nM.
Regarding `O=c1ccn(Cc2nc3ccccc3s2)c(-c2cccc(C(F)(F)F)c2Cl)c1` [Compound I-042], the half-inhibitory concentration (IC50) lay within 1000 to 10000 nM.
As to `O=c1ccn(Cc2ccc(-c3ccccc3)cc2)c(-c2cccc(C(F)(F)F)c2Cl)c1` [Compound I-043], the half-maximal inhibitory concentration (IC50) is 1000 to 10000 nM.
With `O=c1ccn(Cc2cccc3cccnc23)c(-c2cccc(C(F)(F)F)c2Cl)c1` [Compound I-044], the 50% inhibitory concentration (IC50) was in the range of 500 to 1000 nM.
For `O=c1ccn(Cc2ccccc2-c2cccs2)c(-c2cccc(C(F)(F)F)c2Cl)c1` [Compound I-045], the 50% inhibitory concentration (IC50) is 1000 to 10000 nM.
Compound `O=c1ccn(Cc2cccc3c2OCCCO3)c(-c2cccc(C(F)(F)F)c2Cl)c1` [Compound I-046] displayed an IC50 of 100 to 500 nM.
Compound `O=c1ccn(Cc2cccc(-c3cccs3)c2)c(-c2cccc(C(F)(F)F)c2Cl)c1` [Compound I-047] showed an IC50 of 1000 to 10000 nM.
For the compound `O=c1ccn(Cc2ccccc2OCc2ccccc2)c(-c2cccc(C(F)(F)F)c2Cl)c1` [Compound I-049], the IC50 was in the range of 100 to 500 nM.
Compound `O=c1ccn(Cc2cccc(C(F)(F)F)c2)c(-c2cccc(C(F)(F)F)c2Cl)c1` [Compound I-050] displayed an IC50 of 1000 to 10000 nM.
The compound `O=c1ccn(Cc2ccc3ccccc3c2)c(-c2cccc(C(F)(F)F)c2Cl)c1` [Compound I-051] registered an IC50 of 500 to 1000 nM.
As to `O=c1ccn(Cc2ccc(C(F)(F)F)cc2)c(-c2cccc(C(F)(F)F)c2Cl)c1` [Compound I-052], the IC50 is 1000 to 10000 nM.
With `O=c1ccn(Cc2cccnc2)c(-c2cccc(C(F)(F)F)c2Cl)c1` [Compound I-053], the half-maximal inhibitory concentration (IC50) was in the range of 500 to 1000 nM.
Still for that read-out and setting: the result for `O=c1ccn(Cc2c(F)cccc2F)c(-c2cccc(C(F)(F)F)c2Cl)c1` [Compound I-054] reads 100 to 500 nM; that for `O=c1ccn(Cc2cccc(Cl)c2)c(-c2cccc(C(F)(F)F)c2Cl)c1` [Compound I-055], 100 to 500 nM; that for `O=c1ccn(Cc2ccccc2CS(=O)(=O)c2ccccc2)c(-c2cccc(C(F)(F)F)c2Cl)c1` [Compound I-056], 1000 to 10000 nM.
Take `COc1cccc(Cn2ccc(=O)cc2-c2cccc(C(F)(F)F)c2Cl)c1` [Compound I-057]: the IC50 lay in the range of 100 to 500 nM.
The compound `O=c1ccn(Cc2ccccn2)c(-c2cccc(C(F)(F)F)c2Cl)c1` [Compound I-058] had an IC50 of 500 to 1000 nM.

(Values after patent US9988373B2, “Nitrogen-containing six-membered cyclic derivatives and pharmaceutical composition comprising the same” (SHIONOGI & CO., LTD., priority 2013, dated 2018).)
